Assay results: a melting point compilation (Tetko et al.; mined from patent text by program, amines drawn as free bases though some values may be those of a salt)

SMILES | melting point
CC1CCCCC1NC(=O)C1=C(C(=O)Nc2cc(OC3CCCC3)c(Cl)cc2F)CCCC1 (stereo unspecified) | 192 to 195 °C
COC(=O)c1cc2cc(SCc3sc(-c4ccc(C(F)(F)F)cc4)nc3C)ccc2o1 | 132 to 133 °C
CC(=O)Nc1nc(C)c(S(=O)(=O)NCCO)s1 | 211 °C
c1ccc(C2=Nc3cccnc3Nc3ccccc32)cc1 | 106 to 108 °C
COc1cc(Nc2c(C#N)cnc3cc(-c4ccc(CNCCS(C)(=O)=O)cc4)ccc23)c(Cl)cc1Cl | 245 to 246 °C
CCOC(=O)N1CCC(=C2c3ccc(Cl)cc3OCc3cc([N+](=O)[O-])cnc32)CC1 | 192 to 193 °C
CC[C@H](COCC#Cc1ccccc1)n1cnc2c(N)nc3ccccc3c21 | 63 to 67 °C
COC(=O)CN1CCC(NC(=O)OC(C)(C)C)CC1 | 96 to 98 °C
COCc1cccc(OCCc2cnc(S)[nH]c2=O)c1 | 117 to 119 °C
COc1cc(CNc2nc(C)nc(C)c2Cl)ccc1OCc1ccccc1 | 101 to 105 °C
Cc1ccc2[nH]cc(C3=C(c4cn(C)c5ccc(C)cc45)C(=O)N(C)C3=O)c2c1 | 110 to 112 °C
COc1ccc(CS(=O)(=O)CC(=O)O)cc1[N+](=O)[O-] | 96 to 98 °C
Cc1cc(OCC(=O)O)c(C(C)C)cc1SCc1sc(-c2ccc(C(F)(F)F)cc2)nc1C | 168 to 171 °C
CCCSC(C(N)=O)c1cccc(C(=O)c2ccc(F)cc2)c1N (stereo unspecified) | 140 to 142 °C
Cc1ccc2occ(C3CCN(CCc4cc5c(s4)CCCC(=O)N5)CC3)c2c1 | 156 to 158 °C
COC(=O)CC(=O)COc1cc(O)c2c(c1)OC(c1ccc(OC)c(O)c1)CC2=O (stereo unspecified) | 114 to 118 °C
COc1cc(OC)c(-c2cccs2)cc1/C=C/C(=O)c1ccc(S(=O)(=O)Nc2cc[nH]n2)cc1 | 142 to 145 °C
Cc1cc(C)nc(NC(=O)NS(=O)(=O)c2cccc3c2CCCC3)n1 | 152 to 155 °C
CCOCCSC(F)(F)C(O)(Cn1cncn1)c1ccc(F)cc1F (stereo unspecified) | 61 to 63 °C
COC(=O)C1C=CCN2C(=O)C(C)(CCOS(C)(=O)=O)C(=O)N12 (stereo unspecified) | 104 to 105 °C
CC(=O)OCCc1c(C2=CCC(c3ccccc3)(N(C)C)CC2)[nH]c2ccccc12 (stereo unspecified) | 146 to 148 °C
CC(=O)OCC(=O)C12OCOC1CC1C3CCC4=CC(=O)C=CC4(C)C3(Cl)C(O)CC12C (stereo unspecified) | 244 to 245 °C
CNC(=O)Nc1ccc(F)cc1Cl | 174 to 178 °C
CN(Cc1cc[nH]n1)C1CCCN(C(=O)c2ccc(Nc3nccc(Nc4ccc(F)cc4)n3)cc2)C1 (stereo unspecified) | 120 to 140 °C
CCNc1ccc(SSc2ccc(NCC)cc2C(=O)NC(C(=O)O)C(C)CC)c(C(=O)NC(C(=O)O)C(C)CC)c1 (stereo unspecified) | 97 to 100 °C
COC(=O)CCC(=O)Nc1ccc(C(=O)NNC(=O)OC(C)(C)C)cc1 | 111 to 113 °C

SMILES | melting point
CS(=O)(=O)c1cc2[nH]c(=O)c(=O)n(C3CCCCC3)c2cc1-n1cccc1 | > 280 °C
O=C(O)C=CC=Cc1cc(O)c(O)cc1Cl | 203 to 206 °C
[N-]=[N+]=NC1CCc2ccccc2NC1=O (stereo unspecified) | 142 to 145 °C
Cc1cnc(C#N)n1Cc1ccccc1 | 51.5 to 52.5 °C
COc1ccc(NC(=O)NCC2(c3ccccc3)CCCCC2)cc1 | 155 to 157 °C
O=c1oc(=O)n(Cc2ccccc2)c2ccc(F)cc12 | 95 °C
O=C1NCCOc2c1sc1ccccc21 | 244 to 245 °C
Cc1ccc(C(=O)Nc2cccc(C(F)(F)F)c2)cc1-c1ccc2scnc2c1 | 200 to 202 °C
CCCc1nnc2c3cccc(Br)c3ccn12 | 197 to 199 °C
CC(=O)OCC1CC2c3cccc4c3C(CC2N(C)C1)CN4C(C)=O (stereo unspecified) | 172 to 177 °C
Cc1cc(-c2ccc(O)cc2)ccc1C=NO | 195 to 197 °C
Cc1ccc(-c2csc(/C=C/C(=O)Nc3ccc(CN(C)C4CCOCC4)cc3)c2)cc1 | 188 to 190 °C
O=C(O)C(=O)CC(=O)c1cccn1Cc1cc(F)ccc1F | 142 to 146 °C
O=C(Nc1cccc(F)c1)NN1CC=CCC1 | 136 to 138 °C
Cc1ccc(C(=O)NC(NC(=O)Nc2ccccc2F)C(Cl)(Cl)Cl)cc1 (stereo unspecified) | 257 to 259 °C
CC(=O)C(CCS(C)(=O)=O)(CCS(C)(=O)=O)C(C)=O | 162 °C
O=C(O)CCCc1ccc(-c2ccccc2Cl)cc1 | 60 to 61 °C
Cc1nnc2n1-c1sccc1C(c1ccccc1[N+](=O)[O-])=NC2 | 260 to 262 °C
COc1ccc2c(c1)c(S(=O)(=O)c1ccccc1)cn2CCCl | 148 to 150 °C
O=C(NC1CCCc2c(O)cccc21)c1cccc(Cl)c1O (stereo unspecified) | 148 to 151 °C
CC(C)(OC(=O)NC(Cc1c[nH]c2ccccc12)C(=O)NC(Cc1ccccc1)C(N)=O)C(Cl)(Cl)Cl (stereo unspecified) | 187 °C
C=Cc1c(C(C)C)nc(C(C)C)c(CCCCC)c1-c1ccc(F)cc1 | 44 to 46 °C
NC(=O)CCc1ccc(Oc2ccc3c(c2)S(=O)(=O)N=C2CCCN23)cc1 | 178 to 183 °C
COc1ccc(-c2cccc3nc(Nc4cc(OC)c(OC)c(OC)c4)oc23)cc1 | 179 to 182 °C
O=c1oc(-c2ccccc2)cc(O)c1SCCCCc1ccccc1 | 103 to 105 °C
CCCCCCCC1=CC(=O)N(c2ccccc2)C1=CBr | 63 to 65 °C

SMILES | melting point
CCOC(=O)[C@H](Cc1cccc(-c2ccc3ccccc3c2)c1)NC(=O)C(F)(F)F | 89 to 91 °C
N#Cc1[nH]c2ccccc2c1Cl | 150 to 154 °C
COc1ccc2c(Cl)cc(-n3cccn3)nc2c1 | 80 °C
O=C(c1ccc(O)nc1)N1CCN=C1Nc1c(Cl)cccc1Cl | 256 to 258 °C
CCOC(=O)c1cc(=O)c2c(ccc3c4ccccc4c(=O)oc32)o1 | 240 to 242 °C
CCCc1c(OCCCCCCc2ccc3cc(O)c(O)cc3c2)ccc(C(=O)O)c1O | 154 to 158 °C
COc1ccc(-c2cc(-c3ccccc3)[nH]c2C(=O)NCc2ccc(C(=O)Nc3ncccn3)cc2)cc1 | 190 to 191 °C
CNC(=O)N(O)Cc1ccc(Br)cc1 | 165 to 167 °C
CCCN(CCCc1coc2c(OC)cccc12)C1COc2c(F)ccc(C(N)=O)c2C1 (stereo unspecified) | 123 to 129 °C
COC(=O)CC(=O)c1ccc(C#N)cc1 | 93 to 98 °C
COc1ccccc1C1=NC(C)(C)CO1 | 70 to 72 °C
Cn1c2ccccc2c2sc3ccccc3c21 | 175 to 176 °C
COCCN1Cc2c(cnc3c(NC(=O)c4c(Cl)cccc4Cl)cccc23)C1=O | 246 °C
CS(=O)CCCn1c(=N)sc2cc(OC(F)(F)F)ccc21 (racemic) | 114 °C
COc1ccc2c(c1)nc(O)c1nncn12 | > 250 °C
c1ccc(SCC2=NCCN2)cc1 | 84 to 85.6 °C
CC(C)n1cnc2c(NCc3ccccc3)nc(Cl)nc21 | 181 to 182 °C
CC1(C)C(=O)Oc2ccc3cc([N+](=O)[O-])c(Cn4cncn4)cc3c21 | 183 to 185 °C
N=C(N)c1ccc2cc(OC(=O)[C@H]3CC[C@H](CN)CC3)ccc2c1 | 147 °C
COc1ccc(C(=O)c2ccncc2)cc1OC | 117 to 118 °C
Cc1ccc(C(=O)c2noc(CC(N)=O)n2)cc1 | 169 to 171 °C
O=[N+]([O-])c1cc(C(F)(F)F)ccc1NCCCN1CCN(C(c2ccccc2)c2ccccc2)CC1 | 114 °C
FC(F)(F)c1cc(Sc2ccc(Cl)cc2)c(-c2ccc(Cl)cc2)[nH]1 | 39 to 54 °C
COc1ccc(C(=O)c2cccc(CC(=O)O)c2N)cc1 | 117 to 118 °C
NS(=O)(=O)c1ccc(-c2c(-c3ccccc3)noc2COCC(F)(F)C(F)(F)C(F)(F)CO[N+](=O)[O-])cc1 | 38 to 39 °C
Clc1ccc(-c2nc(Br)cnc2Br)cc1 | 123 to 125 °C

SMILES | melting point
Cc1ccc(NC(=O)NN2CCN(CCc3c[nH]c4ccccc34)CC2)cc1 | 201 to 203 °C
O=c1ccc2c([N+](=O)[O-])cccc2n1O | 205 °C
COC(=O)C(=O)c1ccc(OCCCc2ccc(F)cc2)cc1 | 42 to 43 °C
O=C(O)c1ccc(-n2cc3ccccc3n2)cc1 | 286 to 288 °C
CCCCC1=CC(=C(Br)Br)OC1=O | 48 to 49 °C
Cc1cc(OCC(F)(F)F)c(N)c(OCC(F)(F)F)n1 | 53.5 to 53.8 °C
CC(C)(C)OC(=O)CC1CC(C=O)OC(C)(C)O1 (stereo unspecified) | 71 to 73 °C
C=CCOc1ccnc2c([N+](=O)[O-])cccc12 | 127 °C
CCN(CC)c1ccc(/C=C/C(=O)CC(=O)/C=C/c2ccc3cc[nH]c3c2)c(OCc2ccccc2)c1 | 160 to 163 °C
COC(=O)CNc1ccc(OC(=O)CC2CCN(c3ccncc3)CC2)cc1 | 120 to 122 °C
CCC(C)C(NC(=O)C(CS)C(F)(F)F)C(=O)O (stereo unspecified) | 140 to 142 °C
O=C(O)CCCNc1ccccc1CNC(=O)C1Cc2ccccc2N1S(=O)(=O)c1ccc(-c2cccc(C(F)(F)F)c2)cc1 (stereo unspecified) | 77 to 81 °C
O=[N+]([O-])c1c(NCCO)cc(NCCO)cc1NCCO | 200 °C
CC(C)(CSc1ccc(Cl)cc1)C(O)C(Oc1ccc(Cl)cc1)n1cncn1 (stereo unspecified) | 132 °C
CC(=O)C(=O)CCCCCCOc1ccc(-c2ccccc2)cc1 | 110 to 111 °C
COc1cc(-c2cc(=O)c3cccnc3o2)ccc1O | 253 to 255 °C
COc1cccc(CN(CCC(=O)O)c2nc(NC(=O)Nc3ccccc3OC)nc(Oc3ccc4ccccc4c3)n2)c1 | 189 to 194 °C
O=C(C=CC[C@H]1NC(=O)[C@@H]1N1C(=O)c2ccccc2C1=O)OCc1ccccc1 | 115 to 120 °C
Cc1scc2c1N(C(=O)N1CC3CN(C)CC3C1)c1ccccc1NC2=O (stereo unspecified) | 220 to 222 °C
O=c1ccn(-c2c(O)c3ccc(Cl)cc3[nH]c2=O)cc1 | 340 °C
CS(=O)(=O)C(=C1CN(C(c2ccc(Cl)cc2)c2ccc(Cl)cc2)C1)c1cccc(SC(F)(F)F)c1 | 70 °C
O=C(CN1CCC(Cc2ccc(F)cc2)CC1)Nc1cccc(NCc2ccccc2)c1 | 98 to 100 °C
COc1ccc2c(c1)C(C)(C)C(CO)O2 (stereo unspecified) | 65 to 67 °C
